Test results as given in patent publication EP0142057A2, “Thiazoloquinazoline derivatives, their preparation and pharmaceutical compositions containing same” (F. HOFFMANN-LA ROCHE AG, priority 1983, dated 1985).
Structures can show the parent of a compound that is named as a salt.

Legend:
[1] = molecular target: T1, TXA2 synthase (Homo sapiens, UniProt P24557); assay: Thromboxane synthase inhibition, in vitro; type: biochemical; details: at 10^-7M; microsomal fractions from human platelets; read-out: TXA2Synthase Inhibition (% at 10^-7M)
T1 construct: using microsomal fractions from human platelets as enzyme source; from tissue; host or cells: human platelets (microsomal fraction)
T1 sequence (P24557 1-533): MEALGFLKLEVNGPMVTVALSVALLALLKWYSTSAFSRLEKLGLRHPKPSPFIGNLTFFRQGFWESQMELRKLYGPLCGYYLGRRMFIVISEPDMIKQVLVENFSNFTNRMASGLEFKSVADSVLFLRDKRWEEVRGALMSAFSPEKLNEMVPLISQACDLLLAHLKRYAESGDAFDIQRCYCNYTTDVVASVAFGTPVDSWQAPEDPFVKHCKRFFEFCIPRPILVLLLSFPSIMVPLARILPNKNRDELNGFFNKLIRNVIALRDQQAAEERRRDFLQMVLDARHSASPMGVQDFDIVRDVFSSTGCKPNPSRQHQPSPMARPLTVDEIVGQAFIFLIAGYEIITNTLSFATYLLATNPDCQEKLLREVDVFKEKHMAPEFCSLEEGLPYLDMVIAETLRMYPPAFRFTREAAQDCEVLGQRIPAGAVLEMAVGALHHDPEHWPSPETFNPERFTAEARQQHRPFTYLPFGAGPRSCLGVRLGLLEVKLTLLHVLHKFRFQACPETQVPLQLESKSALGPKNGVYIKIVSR
Method: TXA2 synthase activity is measured by following the conversion of ^14C-prostaglandin endoperoxide (PGH2) to ^14C-thromboxane A2 (TXA2) using microsomal fractions from human platelets as enzyme source. In the aqueous incubation medium, the TXA2 decomposes rapidly into TXB2. The amount of TXA2 synthase is adjusted so that under the conditions of the assay approximately 80-90% of the substrate, PGH2, is converted to product in control tubes. To prepare ^14C-PGH2, ^14C-AA (50-60 mCi/mmole: Rose Chem.) is incubated with sheep seminal vesicular gland microsomes for 1.5 minutes at 37°C and then the ^14C-PGH2 is extracted with diethylether, purified on columns of Sephadex LH-20 or silicic acid, and stored in acetone at -70°C. Incubations are done as follows. Sufficient ^14C-PGH2 to yield a final substrate concentration of 10 µM (30,000 cpm) is added to the incubation tubes and then the acetone is removed under nitrogen. The tubes are placed in an ice bath and then 215 1 of ice cold phosphate buffered saline, 10 1 of ethanol (control) or of test drug in ethanol, and 25 1 of the microsomal suspension are added with mixing in that order as rapidly as possible. The tubes are incubated at 22°C for 2 minutes, the reaction is stopped and then the radioactive products and the uncoverted PGH2 are extracted and analyzed by thin layer chromatography. […] The amount of ^14C-PGH2 converted to products was used as a measure of TXA2 synthase activity. Inhibitors were tested initially at a final concentration of 100 µM. Results obtained with representative compounds of the present invention in this assay are summarized hereafter in Table I.

[2] = test system: Guinea Pig Bronchoconstriction; assay: Guinea pig bronchoconstriction, in vivo (leukotriene E4 challenge); parameters: species or system guinea pigs; details: for Guinea Pig Broncho-constriction % Inhibition (10 mg/kg i.v.): Table II; for Guinea Pig Broncho-constriction % Inhibition (10 mg/kg i.v.) / inhibition: leukotriene E4 challenge; for inhibition: 10 mg/kg, i.v.; for oral activity: orally 100 mg/kg, 2 hours prior to challenge with leukotriene E4
Method: Male guinea pigs (Hostley strain) weighing 300 to 450 grams are anesthetized with urethane (2 g/kg) intraperitoneally and a polyethylene cannula is inserted into the jugular vein for intravenous drug administration. Tracheal pressure is recorded from a cannula inserted in the trachea and connected to a Statham pressure transducer. Respiration is paralyzed with succinyl choline (1.2 mg/kg, i.v.) and the animals are mechanically respirated (Howard rodent respirator) at 40 breaths/minute and 2.5 ml tidal volume. Two minutes thereafter, propranolol (0.1 mg/kg, i.v.) is administered. Five minutes later, the animals are pretreated intravenously for 30 seconds (at 10 mg/kg) with test drug or control vehicle. The animals are subsequently challenged with a maximally constrictory dose of leukotriene E4 also administered intravenously. The change (cm H20) between pre and peak ventilatory pressure readings is averaged for three control animals and five drug treated animals. The percent inhibition is calculated from the following formula: [formula]
For determination of oral activity spontaneously breathing animals are pretreated orally with drugs (100 mg/kg) for 2 hours (at 100 mg/kg) prior to challenge with leukotriene E4. […] When tested orally in this assay the two compounds of the invention were active. Results obtained with representative compounds of the present invention in this assay are summarized hereafter in Table II.

[3] = test system: vascular permeability in rat skin; assay: Rat skin permeability, in vivo (LTE4-induced skin wheal); parameters: species or system rats; details: for Rat Skin Permeability % Inhibition (10mg/kg iv): Table II, LTE4 wheal; for reduction in the skin wheal size: 10 mg/kg i.v.
Method: In this model the ability of LTE4 to increase vascular permeability in rat skin was utilized. Anesthetized rats, pretreated for 30 minutes with an antihistamine pyrilamine maleate, 50 mg/kg i.p. and a serotonin antagonist, methyl- […] maleate (4 mg/kg i.p.), were injected intradermally with a standard dose of LTE4 which gave a maximum wheal (in 0.05 ml saline). After introduction of test drug (at 10 mg/kg i.v.) the animals were immediately treated intravenously with Evans blue dye i.v. (0.5%) in the tail vein resulting in the formation of a skin wheal. Thirty minutes later the animals were sacrificed and the skin wheal size was measured. The average response in 5 animals (4 intradermal injections per animal) treated with test compound was compared to that obtained in a similar group of control animals to determine the percent inhibition by the drug.

[4] = test system: Rat Passive Cutaneous Anaphylaxis; assay: Passive cutaneous anaphylaxis (PCA) assay; type: in vivo, rats; details: for ED50: Rattus norvegicus, po, doses administered orally, read-out: Rat PCA Test ID50
Method: Male Sprague-Dawley rats obtained from Charles River Breeding Laboratories were used in the PCA assay. Two methods were used to prepare serum IgE antibody which is specific for egg albumin. In the first method homocytotropic antibody was obtained by injecting 180 to 200 g rats with 1.0 mg of egg albumin (Difco Laboratories, Detroit, Michigan) intramuscularly and 6.4 x 10^10 organisms of Bordetella pertussis vaccine (Eli Lilly and Co., Indiana- polis, Ind.) intraperitoneally. Serum collected from each animal 18-20 days after sensitization was pooled, separated into 1 ml aliquots, and kept frozen until further use. In the second method, rats weighing 150-200 g were immunized by the intraperitoneal injection of 0.5 ml of Bordetella pertussis vaccine (Cannaught Laboratories, Willowdale, Toronto, Canada, 20 optical units/ml) and 100 μg of egg albumin (Nutritional Biochemicals Corp., Cleveland. Ohio). Sixteen days later, Nipostrongylus brasi- […] (3000 larvae/0.1 ml) was administered subcutaneously, and on the 21st day, 10 μg of egg albumin in 0.5 ml of normal saline was administered intraperitoneally. On the 30th day, blood samples were collected by heart puncture; the serum was separated by centrifugation and refrigerated overnight at 5°C. After a 24 hour period, the samples were assayed for antibody activity by the passive cutaneous anaphylaxis method. Those serum samples which produced an average wheal diameter of 3 mm or greater following an intradermal injection of 0.05 ml of a 1:50 dilution of serum in normal saline were pooled, divided into aliquots, and kept frozen until further use. […] The passive cutaneous anaphylaxis assay was carried out in rats weighing 190-220 g in a manner similar to that of Goose and Blair (J. Goose and A.M.J.N. Blair, Immunology, 16, 749 [1969]). Rat IgE antiovalbumin in serum was prepared as described above. The IgE antiserum was titered with normal saline so that injections of 0.05 ml produced skin wheal diameters which averaged 7 to 10 mm. After a 24 hour sensitization period, 1 ml of an aqueous solution containing a mixture of 8 mg of egg albumin (Nutritional Biochemical Corp.. Cleveland, Ohio) and 5 mg of Evans blue dye ([…] Chemical Co., Inc., Harriman, N.Y.) was administered intravenously to each rat. Forty minutes after challenge, each animal was sacrificed by cervical dislocation, and the dorsal skin was removed for examination. The long and short axes of the blued area were measured on the inner surface of the skin with a metric vernier caliper (VWR Scientific Division of Univar, Rochester, N.Y.), and the average diameter was determined for each reaction. […] The procedure was usually conducted on five animals in the control and each of the treatment groups. Statistical analysis of the test results was conduced by the Student's t test of control vs. various treatments. The ID50 and 95% limits were determined by a modification of the Berkson minimum logic chi square method (J. Berkson, J. Am. Stat. Assoc., 48, 565 [1953]).

[5] = test system: vascular permeability in rat skin; assay: Rat skin permeability, in vivo (LTE4-induced skin wheal); parameters: species or system rats; details: for oral activity: tested orally

`CC(C)c1ccc2nc3sc(C(=O)NCCCCCCc4cccnc4)cn3c(=O)c2c1` showed an inhibition at 0.1 µM [1] of 36%.
`CC(C)c1ccc2nc3sc(C(=O)N(C)CCCCc4cccnc4)cn3c(=O)c2c1` was tested, and the “Guinea Pig Broncho-constriction % Inhibition (10 mg/kg i.v.)” value [2] was “Inactive” and the “Rat Skin Permeability % Inhibition (10mg/kg iv)” value [3] was 72%.
`CC(C)c1ccc2nc3sc(C(=O)NCCCCOc4cccnc4)cn3c(=O)c2c1` was tested, and the inhibition at 0.1 µM [1] was 30%.
In the case of `CCC(C)c1ccc2nc3sc(C(=O)NCCN(CC)CC)cn3c(=O)c2c1` (stereo not shown), the “Rat PCA Test (% Inhibition) 16 mg/kg ip” value [4] is reported as 21%.
For `CCN(CC)CCOC(=O)c1cn2c(=O)c3cc(OC)ccc3nc2s1`, the “Rat PCA Test (% Inhibition) 16 mg/kg ip” value [4] was 100%, the “Rat PCA Test (% Inhibition) 32 mg/kg po” value [4] was 100% and the ED50 [4] was 1.31 mg/kg.
With `CCN(CC)CCNC(=O)c1cn2c(=O)c3cc(C(C)C)ccc3nc2s1` the “Rat PCA Test (% Inhibition) 32 mg/kg po” value [4] was 50%.
For `CCN(CC)CCNC(=O)c1cn2c(=O)c3cc(CC(C)C)ccc3nc2s1`, the “Rat PCA Test (% Inhibition) 16 mg/kg ip” value [4] was 31%.
For `CCN(CC)CCNC(=O)c1cn2c(=O)c3cc(C(C)C)cc(C(C)C)c3nc2s1` [7,9-Bis(1-methylethyl)-N-[2-(diethylamino)ethyl] -5-oxo-5H--thiazolo[2,3-b]quinazoline-2-carboxamide hydrochloride], the “Rat PCA Test (% Inhibition) 16 mg/kg ip” value [4] was 31% and the “Rat PCA Test (% Inhibition) 32 mg/kg po” value [4] was 27%.
`CCN(CC)CCOC(=O)c1cn2c(=O)c3cc(C(C)C)ccc3nc2s1` [7-(1-Methylethyl)-5-oxo-5H-thiazolo[2,3-b]quinazoline-2-carboxylic acid(2-diethylaminoethyl) ester hydrochloride] was tested, and the “Rat PCA Test (% Inhibition) 16 mg/kg ip” value [4] was 100%, the “Rat PCA Test (% Inhibition) 32 mg/kg po” value [4] was 100% and the ED50 [4] was 0.45 mg/kg.
For `CCCc1c(OCC(O)COc2ccc3c(=O)cc(C(=O)O)oc3c2CCC)ccc(C(C)=O)c1O` (stereo not drawn) [7-[3-(4-acetyl-3-hydroxy-2-propylphenoxy) -2-hydroxypropoxy]-4-oxo-8-propyl-4H-l-benzopyran-2-carboxylic acid, reference compound], the inhibition [2] was 98%, the oral activity [2] was “inactive” and the “reduction in the skin wheal size” value [3] was 88%. The oral activity [5] was “inactive”.
For `CC(C)c1ccc2nc3sc(C(=O)NCCCCc4cccnc4)cn3c(=O)c2c1` [Example 3, 7-(1-Methylethyl)-5-oxo-N-[4-(3-pyridinyl)butyl]-5H-thiazolo[2,3-b]quinazoline-2-carboxamide], the inhibition [2] was 68%, the “Guinea Pig Broncho-constriction % Inhibition (10 mg/kg i.v.)” value [2] was 68% and the oral activity [2] was “active”. The “reduction in the skin wheal size” value [3] was 35%, the “Rat Skin Permeability % Inhibition (10mg/kg iv)” value [3] was 35% and the oral activity [5] was “active”.
In the case of `CC(C)c1ccc2nc3sc(C(=O)NCCCCn4ccnc4)cn3c(=O)c2c1` [Example 6, N-[4-(1H-Imidazol-1-yl)butyl]-7-(1-methylethyl)-5-oxo-5H-thiazolo[2,3-b]quinazoline-2-carboxamide dihydrochloride 0.45 molar hydrate], the inhibition [2] is reported as 85%, the ED50 ([2]; Cavia porcellus, po, read-out: Guinea Pig Broncho-constriction ID50) is reported as 51 mg/kg and the “Guinea Pig Broncho-constriction % Inhibition (10 mg/kg i.v.)” value [2] is reported as 85%. For the same compound, the oral activity [2] was “active”, the “reduction in the skin wheal size” value [3] was 61% and the “Rat Skin Permeability % Inhibition (10mg/kg iv)” value [3] was 61%. The “Rat Skin Permeability ID50” value ([5]; iv) was 10 mg/kg, the “Rat Skin Permeability ID50” value ([5]; po) was 55 mg/kg and the oral activity [5] was “active”.
With `CCN(CC)CCOC(=O)c1cn2c(=O)c3cc(SC)ccc3nc2s1.Cl` [Example 17, 7-(Methylthio)-5-oxo-5H-thiazolo[2,3-b]quinazoline-2-carboxylic acid (2-diethylaminoethyl) ester hydrochloride] the “Rat PCA Test (% Inhibition) 16 mg/kg ip” value [4] was 52%, the “Rat PCA Test (% Inhibition) 32 mg/kg po” value [4] was 100% and the ED50 [4] was 2.85 mg/kg.
In the case of `CC(C)c1ccc2nc3sc(C(=O)NCCCCc4cccnc4)cn3c(=O)c2c1` [the 1st table, row 4, 7-(1-Methylethyl)-5-oxo-N-[4-(3-pyridinyl)butyl]-5H-thiazolo[2,3-b]quinazoline-2-carboxamide], the inhibition at 0.1 µM [1] is reported as 73%.
For `CC(C)c1cc(C(C)C)c2nc3sc(C(=O)NCCCCc4cccnc4)cn3c(=O)c2c1` [the 1st table, row 5, 7,9-bis(1-methylethyl)-5-oxo-N-[4-(3-pyridinyl)butyl]-5H-thiazolo[2,3-b]quinazoline-2-carboxamide], the inhibition at 0.1 µM [1] was 63%.
For `CC(C)c1cc(C(C)C)c2nc3sc(C(=O)NCCCCc4cccnc4)cn3c(=O)c2c1` [the 2nd table, row 8, 7,9-bis(1-methylethyl)-5-oxo-N-[4-(3-pyridinyl)butyl]-5H-thiazolo[2,3-b]quinazoline-2-carboxamide], the “Rat Skin Permeability % Inhibition (10mg/kg iv)” value [3] was 38%.
